Consider seven compounds from the supplement of paper PMC11061612.

Assay [1] concerns C3A (Hepatocellular Carcinoma). The experiment in a line: Bliss excess, mean over the matrix (fraction); higher = more synergy. Put shortly: (§1)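 Bliss excess equals the observed combination effect minus the expected value EA + EB − EA·EB, where EA and EB are the effects of each agent alone. Combination Emax is the second-highest inhibition within the matrix. Inhibition was scaled from CellTiter-Glo 2.0 luminescence, with 0 set by vehicle wells and 1 by blank wells, after 72 hours of two-drug dosing of cells plated in 1536-well plates.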

Assay [2] concerns COR-L23 (Non-Small Cell Lung Carcinoma). The description is as above. In outline: as §1
The test system of assay [3] is DMS-273 (Small Cell Lung Carcinoma). The assay is described as above. In outline:
as §1

Assay [4] has as its system HCC2157 (Breast Carcinoma). The assay is described as above. Put shortly: as §1
In assay [5] the test system is HT-29 (Colorectal Carcinoma). The description is as above. In outline: as §1
The next assay has as its system NCI-H2595 (Mesothelioma). Described as above. Put shortly:
as §1

Another assay deals with RH-1 (Ewing's Sarcoma). The description is as above. Put shortly:
as §1

In assay [6] the test system is SW1783 (Low Grade Glioma). The assay is described as above. Put shortly: as §1
The test system of assay [7] is SW756 (Cervical Carcinoma). The description is as above. Put shortly:
as §1

The test system of assay [8] is SW780 (Bladder Carcinoma). The description is as above. In outline: as §1
Assay [9] concerns U-266 (Plasma Cell Myeloma). Described as above. In outline:
as §1

The subject of assay [10] is 697 (B-Lymphoblastic Leukemia). In words: combination Emax (second highest fraction inhibited in the dose matrix, 72 h); higher = more inhibition; extreme values may be limits of the assay. Put shortly:
as §1

Assay [11] deals with DMS-273 (Small Cell Lung Carcinoma). The assay is described as above. Put shortly:
as §1

Another assay has as its system ES7 (Ewing's Sarcoma). Described as above. Put shortly:
as §1

The test system of assay [12] is HPAC (Pancreatic Carcinoma). Described as above. Put shortly:
as §1

The subject of assay [13] is JiyoyeP-2003 (Burkitt's Lymphoma). The assay is described as above. In outline:
as §1

In assay [14] the test system is KM-H2 (Hodgkin's Lymphoma). The assay is described as above. Put shortly:
as §1

In assay [15] the test system is LU-99A (Non-Small Cell Lung Carcinoma). The description is as above. In outline: as §1
In assay [16] the test system is SUIT-2 (Pancreatic Carcinoma). The description is as above. Put shortly:
as §1

Assay [17] has as its system U-266 (Plasma Cell Myeloma). Described as above. In outline: as §1

In the case of `COc1nnc2ccc(N3CCC(c4ccc(OCCN5CCN(C)C(=O)[C@H]5C)cc4)CC3)nn12` [AZD5153] + Cn1cnc2c(F)c(Nc3ccc(Br)cc3Cl)c(C(=O)NOCCO)cc21 [Selumetinib] (first compound max 1 µM, 7x7, partner max 10 µM), the Bliss excess in assay [1] was -0.0272; in [2] it was -0.0516; in assay [3], -0.0661; in assay [4] it was -0.0038; in [5], -0.0281; in the assay with NCI-H2595 (Mesothelioma), -0.0604. The Bliss excess was -0.0267 in the assay on RH-1 (Ewing's Sarcoma); -0.0214 in assay [6]; 0.0167 in [7]; -0.058 in assay [8]; 0.0347 in assay [9]. Further, the “combination Emax” value in [10] was determined as 1; in assay [11], 0.71; with ES7 (Ewing's Sarcoma), 0.549; in assay [12], 0.82; in assay [13] it was 0.839; in [14] it was 0.299. The “combination Emax” value in assay [15] was 0.949; in assay [16], 0.558; in assay [17], 0.542.
As for `NC1(C(=O)N[C@@H](CCO)c2ccc(Cl)cc2)CCN(c2ncnc3[nH]ccc23)CC1` [Capivasertib] + CCN(CCO)CCCOc1ccc2c(Nc3cc(CC(=O)Nc4cccc(F)c4)[nH]n3)ncnc2c1 [AZD2811] (first compound max 10 µM, 7x7, partner max 1 µM), the Bliss excess in assay [1] was -0.0156; in assay [2] it was -0.0446; in assay [3], -0.0015; in assay [4], -0.0286; in assay [5], -0.0137; in the assay with NCI-H2595 (Mesothelioma), -0.0718. Also, the Bliss excess is 0.0222 in the assay with RH-1 (Ewing's Sarcoma); -0.0236 in assay [6]; -0.0299 in [7]; 0.015 in assay [8]; -0.105 in assay [9]. In addition, the “combination Emax” value in [10] came to 1; in assay [11] it was 0.906; with ES7 (Ewing's Sarcoma), 0.86; in [12] it was 0.395; in [13], 0.777; in assay [14] it was 0.362. In addition, the “combination Emax” value in [15] came to 0.559; in assay [16] it was 0.177; in assay [17], 0.312.
For `Cc1c2c(nn1C)CSCc1cc(n(C)n1)CSc1cc(c3ccccc3c1)OCCCc1c(C(=O)O)n(C)c3c-2c(Cl)ccc13` [AZD5991] + Cc1cc2ncnn2cc1Nc1ncc2c(n1)n(C1CCOCC1)c(=O)n2C [AZD7648] (first compound max 1 µM, 7x7, partner max 10 µM), the Bliss excess in assay [1] is -0.0312; in assay [2] it was -0.0076; in [3], -0.0113; in [4], 0.0283; in [5] it was 0.0049; in the assay on NCI-H2595 (Mesothelioma), 0.0034. For the same compound, the Bliss excess in the assay on RH-1 (Ewing's Sarcoma) is -0.0036; in assay [6], -0.0408; in [7], -0.0367; in [8], -0.0193; in assay [9] it was 0.0078. In addition, the “combination Emax” value in assay [10] is 1; in assay [11], 0.988; with ES7 (Ewing's Sarcoma), 0.682; in assay [12], 0.254; in [13], 0.784; in assay [14], 0.172. The “combination Emax” value in assay [15] stood at 0.414; in [16], 0.179; in assay [17], 0.945.
For the compound `C[C@@H]1COCCN1c1cc(C2([S@](C)(=N)=O)CC2)nc(-c2ccnc3[nH]ccc23)n1` [AZD6738] + O=C(c1cc(Cc2n[nH]c(=O)c3ccccc23)ccc1F)N1CCN(C(=O)C2CC2)CC1 [Olaparib] (first compound max 10 µM, 7x7, partner max 10 µM), the Bliss excess in assay [1] is -0.0039; in [2] it was -0.034; in assay [3] it was -0.0473; in assay [4], 0.0441; in [5], -0.0014; with NCI-H2595 (Mesothelioma) it was -0.0073. Besides, the Bliss excess in the assay with RH-1 (Ewing's Sarcoma) is 0.0873; in [6], 0.0376; in assay [7] it was -0.0158; in assay [8], -0.0047; in assay [9] it was 0.0151. Moreover, the “combination Emax” value in assay [10] was 1; in [11] it was 0.721; in the assay on ES7 (Ewing's Sarcoma), 0.962; in [12] it was 0.416; in assay [13], 0.944; in [14] it was 0.785. In addition, the “combination Emax” value was determined as 0.712 in assay [15], 0.676 in assay [16] and 0.584 in [17].
As to `CC1(C)CCC(CN2CCN(c3ccc(C(=O)NS(=O)(=O)c4ccc(NCC5CCOCC5)c([N+](=O)[O-])c4)c(Oc4cnc5[nH]ccc5c4)c3)CC2)=C(c2ccc(Cl)cc2)C1` [Venetoclax] + C[C@@H](Nc1cc(F)cc(F)c1)c1cc(C(=O)N(C)C)cc2c(=O)cc(N3CCOCC3)oc12 [AZD8186] (first compound max 1 µM, 7x7, partner max 3 µM), the Bliss excess was -0.0803 in assay [1]; -0.0328 in assay [2]; 0.0274 in assay [3]; 0.115 in [4]; -0.0255 in [5]; -0.0111 in the assay with NCI-H2595 (Mesothelioma). In addition, the Bliss excess in the assay on RH-1 (Ewing's Sarcoma) was -0.0429; in [6] it was -0.0258; in assay [7] it was -0.0452; in assay [8], -0.0135; in [9] it was 0.0357. The “combination Emax” value in assay [10] is 0.986; in [11], 0.482; with ES7 (Ewing's Sarcoma), 0.904; in assay [12], 0.211; in [13], 0.527; in assay [14], 0.139. The “combination Emax” value in assay [15] came to 0.234; in assay [16], 0.0137; in assay [17], 0.471.
Take `CC1(C)CCC(CN2CCN(c3ccc(C(=O)NS(=O)(=O)c4ccc(NCC5CCOCC5)c([N+](=O)[O-])c4)c(Oc4cnc5[nH]ccc5c4)c3)CC2)=C(c2ccc(Cl)cc2)C1` [Venetoclax] + CN(C)CCCOc1ccc(-c2ccc3ncc4c(c3c2)n(C2CCOCC2)c(=O)n4C)cn1 [AZD0156] (first compound max 1 µM, 7x7, partner max 1 µM): the Bliss excess in assay [1] was -0.0414; in [2] it was -0.0064; in assay [3], 0.0156; in assay [4], 0.0314; in assay [5] it was -0.0086; in the assay on NCI-H2595 (Mesothelioma), 0.0103. The Bliss excess was -0.0098 in the assay on RH-1 (Ewing's Sarcoma); -0.0532 in assay [6]; -0.0215 in assay [7]; -0.0031 in [8]; 0.0264 in [9]. The “combination Emax” value in [10] is 0.988; in assay [11] it was 0.355; with ES7 (Ewing's Sarcoma) it was 0.925; in assay [12] it was 0.26; in assay [13] it was 0.189; in assay [14], 0.206. The “combination Emax” value was 0.16 in [15], 0.207 in assay [16] and 0.56 in [17].
Turning to `NC1(C(=O)N[C@@H](CCO)c2ccc(Cl)cc2)CCN(c2ncnc3[nH]ccc23)CC1` [Capivasertib] + CC(=O)c1c(C)c2cnc(Nc3ccc(N4CCNCC4)cn3)nc2n(C2CCCC2)c1=O [Palbociclib] (first compound max 10 µM, 7x7, partner max 10 µM), the Bliss excess is 0.0164 in assay [1]; -0.0252 in assay [2]; -0.0309 in assay [3]; -0.0052 in assay [4]; 0.0086 in assay [5]; -0.0248 in the assay with NCI-H2595 (Mesothelioma). In addition, the Bliss excess in the assay with RH-1 (Ewing's Sarcoma) is -0.0427; in assay [6], -0.0263; in assay [7], -0.0499; in [8] it was -0.0119; in [9], -0.0606. Besides, the “combination Emax” value in [10] was found to be 0.838; in [11], 0.817; in the assay with ES7 (Ewing's Sarcoma) it was 0.655; in assay [12], 0.589; in [13], 0.683; in assay [14] it was 0.513. Moreover, the “combination Emax” value in assay [15] came to 0.502; in [16] it was 0.552; in assay [17], 0.254.
